This passage reports Activity and Ki results from ChEMBL document CHEMBL1154280, “Identification and characterization of a small molecule inhibitor of Fatty Acid binding proteins” (J Med Chem, 2009).

Assay [1] deals with T1, Peroxisome proliferator-activated receptor gamma (Mus musculus) (UniProt P37238).
T1 sequence (whole entry): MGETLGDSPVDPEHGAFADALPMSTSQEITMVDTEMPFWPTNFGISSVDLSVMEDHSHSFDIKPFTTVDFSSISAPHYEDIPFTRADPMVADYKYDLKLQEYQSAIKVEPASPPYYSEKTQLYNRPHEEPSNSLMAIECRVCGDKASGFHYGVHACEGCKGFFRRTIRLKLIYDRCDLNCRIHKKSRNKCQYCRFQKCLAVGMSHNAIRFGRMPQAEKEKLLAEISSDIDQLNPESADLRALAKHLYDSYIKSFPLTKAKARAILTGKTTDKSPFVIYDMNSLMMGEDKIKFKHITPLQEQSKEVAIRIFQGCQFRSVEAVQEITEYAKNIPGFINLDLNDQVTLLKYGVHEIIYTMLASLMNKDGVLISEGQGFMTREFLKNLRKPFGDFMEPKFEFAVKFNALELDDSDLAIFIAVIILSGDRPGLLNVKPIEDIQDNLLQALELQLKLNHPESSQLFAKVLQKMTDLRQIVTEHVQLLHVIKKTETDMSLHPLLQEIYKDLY
The experiment in a line: Binding affinity to PPARgamma in C57BL/6J mouse macrophages assessed as increase in CD36 mRNA level at 5 uM after 48 hrs by real-time PCR analysis.

Assay [2] addresses T1, Peroxisome proliferator-activated receptor gamma (Mus musculus). The experiment in a line: Binding affinity to PPARgamma in C57BL/6J mouse macrophages assessed as increase in Cpt1alpha mRNA level at 5 uM after 48 hrs by real-time PCR analysis.
The target of assay [3] is T2, Fatty acid-binding protein, adipocyte (Homo sapiens, UniProt P15090). The experiment in a line: Binding affinity to AFABP in forskolin-stimulated […] C8PA cells assessed as blocked of protein interaction with hormone sensitive lipase at 1 uM after 2 to 4 hrs by FRET analysis. It counts as cell-based.
Target sequence in this assay (P15090 2-132 limits assumed): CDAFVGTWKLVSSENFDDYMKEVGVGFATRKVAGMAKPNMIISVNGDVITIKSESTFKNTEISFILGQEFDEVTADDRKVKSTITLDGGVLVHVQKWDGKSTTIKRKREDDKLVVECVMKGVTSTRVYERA
For assay [4], the target named is T2, Fatty acid-binding protein, adipocyte. The experiment in a line: Binding affinity to AFABP in […] C8PA cells assessed as blocked of protein interaction with hormone sensitive lipase at 10 uM after 2 to 4 hrs by FRET analysis. In kind it is cell-based.
Target sequence in this assay (P15090 2-132 limits assumed): as above
For assay [5] the target is unchanged. The experiment in a line: Binding affinity to AFABP in forskolin-stimulated […] C8PA cells assessed as blocked of protein interaction with hormone sensitive lipase at 10 uM after 2 to 4 hrs by FRET analysis. It counts as cell-based.
Target sequence in this assay (P15090 2-132 limits assumed): as above
Assay [6] relates to Macrophage. The experiment in a line: Antiinflammatory activity in C57BL/6J mouse macrophages assessed as inhibition of LPS-stimulated IL6 release pretreated for 48 hrs before LPS challenge measured after 24 hrs by ELISA. It counts as functional, cell-based. A general note: ELISA stands for enzyme-linked immunosorbent assay.
For assay [7], the system named is Macrophage. Nature of the assay: Antiinflammatory activity in C57BL/6J mouse macrophages assessed as inhibition of LPS-stimulated TNFalpha release pretreated for 48 hrs before LPS challenge measured after 24 hrs by ELISA. It counts as functional, cell-based.
Assay [8] relates to Macrophage. Nature of the assay: Antiinflammatory activity in C57BL/6J mouse macrophages assessed as inhibition of LPS-stimulated MCP1 release pretreated for 48 hrs before LPS challenge measured after 24 hrs by ELISA. In kind it is functional, cell-based.
The target in assay [9] is T1, Peroxisome proliferator-activated receptor gamma (Mus musculus). The experiment in a line: Binding affinity to PPARgamma in C57BL/6J mouse macrophages assessed as increase in CD36 mRNA level at 500 nM after 48 hrs by real-time PCR analysis. (In qPCR the cycle at which signal appears reflects the starting amount.)
Assay [10] shares this target. The experiment in a line: Binding affinity to PPARgamma in C57BL/6J mouse macrophages assessed as increase in Cpt1alpha mRNA level at 500 nM after 48 hrs by real-time PCR analysis.
Assay [11] concerns the target T3, Peroxisome proliferator-activated receptor gamma (Homo sapiens) (UniProt P37231).
T3 sequence (whole entry): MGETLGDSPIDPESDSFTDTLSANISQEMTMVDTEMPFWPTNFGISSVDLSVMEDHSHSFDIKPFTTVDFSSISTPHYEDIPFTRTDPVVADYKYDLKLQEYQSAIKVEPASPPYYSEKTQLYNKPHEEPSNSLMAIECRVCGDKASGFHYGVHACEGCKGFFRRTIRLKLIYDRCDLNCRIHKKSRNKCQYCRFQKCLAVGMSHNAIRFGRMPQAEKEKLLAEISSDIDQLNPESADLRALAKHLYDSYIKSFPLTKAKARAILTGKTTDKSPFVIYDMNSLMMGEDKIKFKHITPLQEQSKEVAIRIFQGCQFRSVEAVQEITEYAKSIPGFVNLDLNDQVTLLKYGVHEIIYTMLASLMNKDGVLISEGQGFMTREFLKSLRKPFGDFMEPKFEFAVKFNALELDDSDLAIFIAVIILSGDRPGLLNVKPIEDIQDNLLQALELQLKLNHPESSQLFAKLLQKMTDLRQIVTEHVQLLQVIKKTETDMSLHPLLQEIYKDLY
The experiment in a line: Activation of PPARgamma expressed in african green monkey CV1 cells at 0.5 to 25 uM after 24 hrs by luciferase reporter gene assay. It counts as cell-based. The following applies: CV-1. Background: A reporter such as luciferase makes a cellular process visible.

In assay [12] the target is T2, Fatty acid-binding protein, adipocyte. The experiment in a line: Displacement of […] 1-anilinonaphthalene 8-sulfonic acid from AFABP expressed in Escherichia coli BL21 (DE3) by fluorescence spectrophotometry.
Target sequence in this assay (P15090 whole entry): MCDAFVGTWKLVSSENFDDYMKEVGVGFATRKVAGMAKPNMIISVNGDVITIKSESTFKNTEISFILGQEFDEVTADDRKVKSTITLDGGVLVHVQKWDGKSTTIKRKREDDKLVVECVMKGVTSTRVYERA
In assay [13] the target is Fatty acid-binding protein 5 (Homo sapiens, UniProt Q01469). Nature of the assay: Displacement of […] 1-anilinonaphthalene 8-sulfonic acid from EFABP expressed in Escherichia coli BL21 (DE3) by fluorescence spectrophotometry.
For assay [14], the target named is Fatty acid-binding protein, heart (Homo sapiens, UniProt P05413). Nature of the assay: Displacement of […] 1-anilinonaphthalene 8-sulfonic acid from HFABP expressed in Escherichia coli BL21 (DE3) by fluorescence spectrophotometry.
For assay [15], the target named is T4, Fatty acid-binding protein, intestinal (Homo sapiens, UniProt P12104).
T4 sequence (P12104 whole entry): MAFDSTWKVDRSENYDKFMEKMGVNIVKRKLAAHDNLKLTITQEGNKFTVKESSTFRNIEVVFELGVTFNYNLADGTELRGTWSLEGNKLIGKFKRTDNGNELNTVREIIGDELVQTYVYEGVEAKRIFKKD
Nature of the assay: Displacement of […] 1-anilinonaphthalene 8-sulfonic acid from IFABP expressed in Escherichia coli BL21 (DE3) by fluorescence spectrophotometry.

Assay [16] deals with T5, Fatty acid-binding protein, liver (Homo sapiens, UniProt P07148).
T5 sequence (P07148 whole entry): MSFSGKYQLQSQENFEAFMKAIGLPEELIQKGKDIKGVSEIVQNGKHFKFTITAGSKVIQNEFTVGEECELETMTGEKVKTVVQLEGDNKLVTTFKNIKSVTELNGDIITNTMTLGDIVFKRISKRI
Nature of the assay: Displacement of […] 1-anilinonaphthalene 8-sulfonic acid from LFABP expressed in Escherichia coli BL21 (DE3) by fluorescence spectrophotometry.

The target in assay [17] is T2, Fatty acid-binding protein, adipocyte. Nature of the assay: Binding affinity to AFABP in […] C8PA cells assessed as blocked of protein interaction with hormone sensitive lipase at 1 uM after 2 to 4 hrs by FRET analysis. In kind it is cell-based.
Target sequence in this assay (P15090 2-132 limits assumed): as the sequence (P15090 2-132 limits assumed) above

The source made the active and inactive calls. The calls are words filed in the database; no cut-off is given here.

Sequence of Fatty acid-binding protein 5 (Q01469 whole entry): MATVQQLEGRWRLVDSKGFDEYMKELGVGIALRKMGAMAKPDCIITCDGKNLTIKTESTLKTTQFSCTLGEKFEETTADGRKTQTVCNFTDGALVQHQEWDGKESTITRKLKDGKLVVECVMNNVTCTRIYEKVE
Sequence of Fatty acid-binding protein, heart (P05413 whole entry): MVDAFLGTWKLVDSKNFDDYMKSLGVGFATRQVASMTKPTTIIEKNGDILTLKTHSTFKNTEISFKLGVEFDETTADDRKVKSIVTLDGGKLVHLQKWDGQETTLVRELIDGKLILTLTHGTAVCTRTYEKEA

On to `CCCCC/C=C/C=C1/C(=O)C=C[C@@H]1C/C=C\CCCC(=O)O`, for which the outcome in [1] and in assay [2] was Active.
The Ki is a measure of affinity in units of concentration, obtained from inhibition or displacement. Consider `COC(=O)c1sc(-c2cccs2)cc1NC(=O)/C=C/C(=O)O`, for which the result in assay [3], in [9], in assay [10] and in assay [11] was inactive. Further, the result (in assay [4]; in [5]; in the assay with Macrophage [6]; in the assay with Macrophage [7]; with Macrophage [8]; in [17]) was Active. The Ki in [12] was 0.67 µM; in assay [13], 3.4 µM; in [14] it was 9.07 µM; in assay [15] it was 6.57 µM; in assay [16], 8.17 µM.
